Data reported in US20060211676A1, “Crystalline anhydrous cefdinir and crystalline cefdinir hydrates” (priority 2004, published 2006).

Assay: Dynamic Moisture Sorption/Desorption Gravimetric (DMSG) analysis
Type: physicochemical
Settings: relative humidity from 50% to 90%
Protocol: Dynamic Moisture Sorption/Desorption Gravimetric (DMSG) analysis was performed for the cefdinir lower hydrates. A vacuum moisture balance (MB 300G, VTI Corporation) was used to study the moisture sorption and desoprtion. Samples were dried at 50° C. under vacuum to constant weight. Relative humidity was increased to 90% in 10% increments. If the sample weight remained unchanged (i.e. changed by less than about 3 mg/15 min), the moisture content was recorded. The balance was calibrated before the experiment and the accuracy of the relative humidity measurement was verified with polyvinylpyrrolidone K90. […] Sharp steps, for example with relative humidity changes from 40% to 50%, occur when the crystal undergoes a phase change (i.e. a crystalline structure change). […] Increases in the relative humidity from 10% to almost 40%, results in the formation of crystalline iso-structural hydrates. The cefdinir iso-structural hydrates varied but maintained the same crystalline structure and PXRD patterns (FIG. 6). An increase in the relative humidity from 40% to 50% caused a crystalline structure change, and further increase of relative humidity from 50% to 90% caused cefdinir trihemihydrate (having a water content of about 14%) to form. […] The weight changes are expressed by percentage of water content and by the calculated molar content of water.

With C=CC1=C(C(=O)O)N2C(=O)[C@@H](NC(=O)/C(=N\O)c3csc(N)n3)[C@H]2SC1.C=CC1=C(C(=O)O)N2C(=O)[C@@H](NC(=O)/C(=N\O)c3csc(N)n3)[C@H]2SC1.O.O.O.O.O.O.O [cefdinir trihemihydrate, crystalline(6R-(6α,7β(Z)))-7-(((2-amino-1,3-thiazol-4-yl)(hydroxyimino)acetyl)amino)-3-ethenyl-8-oxo-5-thia-1-azabicyclo[4.2.0]oct-2-ene-2-carboxylic acid.3.5H2O] the water content was “about 14%”.
